Reference: US8332025B2, “Method and system for detecting electrophysiological changes in pre-cancerous and cancerous tissue and epithelium” (Epi-Sci, LLC, priority 2005, dated 2012)
Where two headings read alike, the source gives them in different places.

Columns and labels:
distal colon = experiment: Transepithelial potential (VT) of colon during treatment; format: in vivo, CF1 mice; details: administered over the same period (four weeks)
colonocyte cell membrane = details: cited from earlier work
[1] = tested on: apical K+ channels of human colonic mucosa; experiment: Short circuit current of human colonic epithelium ex-vivo (FIG. 12); details: 30 mM mucosal; normal colon; 0.1 mM amiloride; elevated serosal K+
Method: The potassium permeability of the apical membrane of human colonic mucosa (P^Ka) was determined in surgical specimens of controls and grossly normal-appearing mucosa obtained 10-30 cm proximal to colorectal adenocarcinomas. The mucosa was, mounted in Using chambers and the basolateral, membrane resistance and voltage were nullified by elevating the K^+ in the serosal bathing solution. The apical sodium (Na^+) conductance was blocked with 0.1 mM amiloride. This protocol reduces the equivalent circuit model of the epithelium to an apical membrane conductance and electromotive force in parallel with the paracellular pathway as has been verified by microelectrode studies. […] In cancer-bearing colon the reduction in Isc is to −65 μA/cm^2. The serosal bath was remained constant at 125 mM [K].

breast epithelium = details: 20 μM luminal, cited from earlier work
[2] = tested on: benign breast epithelial cells; experiment: Cell membrane potential, potentiometric fluorescent probe (FIG. 7), benign cells; format: cell-based, human; details: estradiol added to the culture media; approximately −50 mV in its absence
Method: (§1) Measurements were made using a potentiometric fluorescent probe, and ratiometric measurements, which are calibrated using valinomycin and [K^+]-gradients. Ψs were measured in the presence (closed circles) and absence (open circles) of estradiol (the active, metabolite of estrogen). Each symbol is the mean measurement. The upper error bar is the standard error of the mean, and the lower error bar is the 95% confidence level for the observations. The addition of estrogen to cultured breast epithelial cells results in an instantaneous increase in Ψ (data not shown) as well as the transepithelial potential see. FIG. 8. Transepithelial potential (VT) of an epithelium is the sum of the apical (luminal) cell membrane potential (VA) and the basolateral (abluminal) cell membrane potential (VBL). Therefore VT=VA+VBL (changes in VA and/or VBL will therefore alter VT or transepithelial potential). […] Malignant and transformed cells have a Ψ of between −31 and −35 mV in the absence of estradiol and approximately 50 mV when estradiol is present in the culture medium.

[3] = tested on: Malignant and transformed cells; experiment: Cell membrane potential, potentiometric fluorescent probe (FIG. 7), malignant and transformed cells; format: cell-based, human; details: estradiol present in the culture medium; −31 to −35 mV in its absence
Method: as §1

[4] = tested on: benign human breast epithelial cells; experiment: Transepithelial potential of monolayers in Ussing chambers (FIG. 8), benign epithelia; format: cell-based; details: increasing doses 0 to 0.8 μM
Method: (§2) It should be noted, that the instantaneous response, illustrated in FIG. 8, is greater in malignant epithelia, whereas the chronic or sustained exposure to estradiol results in a lower increase in TEP (transepithelial, electropotential) in malignant cells. Concurrent measurement of surface electropotential and impedance allow the more accurate diagnosis of cancer. […] The cells were grown, as monolayers on Millipore filters and grew to confluence in 7 to 10 days. The epithelia were then mounted in modified Using chambers and the TEP was measured using a voltage clamp. Increasing doses of estradiol between 0 and 0.8 μM were added (x-axis). The transepithelial potential was measured after each addition and the TEP was measured (y-axis). The different dose response is apparent for benign and malignant epithelia. Malignant epithelia have a lower TEP but undergo an instantaneous increase in TEP of approximately 9 mV (becomes more electronegative and reaches a level of <−6 mV) after exposure to only 0.1 μM estradiol and then depolarize to approximately −2 mV with increasing doses of estradiol up to about 0.5 μM. […] 0.3 μM and then remain persistently elevated (higher electro negativity), unlike the malignant epithelia, with increasing doses of estradiol.

[5] = tested on: malignant human breast epithelial cells; experiment: Transepithelial potential of monolayers in Ussing chambers (FIG. 8), malignant epithelia; format: cell-based
Method: as §2

For O=c1[nH]cc(F)c(=O)[nH]1 [5-fluorouracil], the “effect on transepithelial potential (VT)” value (distal colon) was “did not cause a reduction in VT”.

For CNNC [DMH, 1,2 dimethylhydrazine], the “VA (apical membrane voltage)” value (colonocyte cell membrane; after 6 weeks of treatment, from −74.9 mV) is listed as −61.4 mV and the “VA (apical membrane voltage)” value (colonocyte cell membrane; by 20 weeks of treatment) is listed as −34 mV.

For CC[N+](CC)(CC)CC [TEA], the “effect on short circuit current (Isc)” value [1] was “abrupt increase in Isc”.

In the case of N=C(N)NC(=O)c1nc(Cl)c(N)nc1N [amiloride], the “increase in transepithelial resistance” value (breast epithelium) is given as 17% and the “depolarization of the transepithelial potential (change)” value (breast epithelium; from −5.9±0.5 mV, mean±SEM) is given as “+3.1±0.5 mV”.

With C[C@]12CC[C@@H]3c4ccc(O)cc4CC[C@H]3[C@@H]1CC[C@@H]2O [estradiol, 17-β-estradiol] the “cell membrane potential (Ψ)” value [2] was roughly −70 mV, the “cell membrane potential (Ψ)” value [3] was “approximately 50 mV” and the “dose at which the TEP response peaks” value [4] was roughly 0.3 µM. The TEP level reached ([5]; 0.1 μM) was less than −6 mV, the “instantaneous increase in TEP” value ([5]; 0.1 μM) was “approximately 9 mV” and the “TEP after depolarization with increasing doses” value ([5]; up to about 0.5 μM) was “approximately −2 mV”.
